# In patent publication US20020031795A1, “Nitrocoumarins for detecting all micro-organisms” (priority 1998, published 2002):
# Columns and labels:
# Assay in all cases: Fluorescence after 24 hours, serial dilutions in Trypticase Soy broth
# Assay type in all cases: cell-based
# [1] = test system: Burkholderia cepacia (ATCC 25416)
# Protocol: (§1) This experiment was performed to test 7-nitrocoumarin-3-carboxylic acid on sixteen (16) different types of microorganism, including one yeast species.
# (§2) A mass of 10 mg of the indicator was dissolved in 4 ml of hot, distilled water and this solution was then added to 96 ml of Trypticase Soy broth. The resultant mixture was sterile-filtered.
# (§3) All the microorganisms were grown for 24 hours in Trypticase Soy broth at 35° C. Each culture was then diluted 1,000-fold in Trypticase Soy broth and then serial 10-fold dilutions were made in more Trypticase Soy broth until the test aliquot contained no more microbial cells.
# (§4) The resultant dilutions ranged from 10^−3 to 10^−13.
# (§5) Fifty microliters of each dilution plus 50 μl of Trypticase Soy broth were added to wells of a microtiter plate with or without 7-nitrocoumarin-3-carboxylic acid.
# (§6) The plates were read (T zero) and then incubated at 35° C. before being read again after 24 hours. Two different readings were made at each time point:
# (§7) of the fluorescence (excitation at 365 nm and emission at 440 nm), using a Biolite F1 2001 fluorometer (Labtech International Limited), for wells containing 7-nitrocoumarin-3-carboxylic acid.
# [2] = test system: Streptococcus mitis (NCTC 12261)
# Protocol: as §1, §2, §3, §4, §5, §6, §7
# [3] = test system: Serratia marcescens (NCTC 10211)
# Protocol: as §1, §2, §3, §4, §5, §6, §7
# [4] = test system: Staphylococcus aureus (NCTC 6571)
# Protocol: as §1, §2, §3, §4, §5, §6, §7
# [5] = test system: Moraxella nonliquefaciens (ATCC 19975)
# Protocol: as §1, §2, §3, §4, §5, §6, §7
# [6] = test system: Pseudomonas putida (ATCC 12633)
# Protocol: as §1, §2, §3, §4, §5, §6, §7
# [7] = test system: Listeria ivanovii (wild strain)
# Protocol: as §1, §2, §3, §4, §5, §6, §7
# [8] = test system: Shewanella putrefaciens (ATCC 8071)
# Protocol: as §1, §2, §3, §4, §5, §6, §7
# [9] = test system: Acinetobacter baumanii (ATCC 19606)
# Protocol: as §1, §2, §3, §4, §5, §6, §7
# [10] = test system: Moraxella osloensis (ATCC 19976)
# Protocol: as §1, §2, §3, §4, §5, §6, §7
# [11] = test system: Acinetobacter calcoaceticus (ATCC 7844)
# Protocol: as §1, §2, §3, §4, §5, §6, §7
smiles,measurement,setting,value
O=C(O)c1cc2ccc([N+](=O)[O-])cc2oc1=O [7-nitrocoumarin-3-carboxylic acid],Fluorescence reading,[1]; dilution 10^−3,16978
same,Fluorescence reading,[1]; dilution 10^−4,16719
same,Fluorescence reading,[1]; dilution 10^−5,16808
same,Fluorescence reading,[1]; dilution 10^−6,15800
same,Fluorescence reading,[1]; dilution 10^−7,11973
same,Fluorescence reading,[1]; dilution 10^−8,1969
same,Fluorescence reading,[1]; dilution 10^−9,1996
same,Fluorescence reading,[1]; dilution 10^−10,1950
same,Fluorescence reading,[1]; dilution 10^−11,1925
same,Fluorescence reading,[1]; dilution 10^−12,1965
same,Fluorescence reading,[1]; dilution 10^−13,1914
same,Fluorescence reading,[2]; dilution 10^−3,20988
same,Fluorescence reading,[2]; dilution 10^−4,21541
same,Fluorescence reading,[2]; dilution 10^−5,19899
same,Fluorescence reading,[2]; dilution 10^−6,19619
same,Fluorescence reading,[2]; dilution 10^−7,17228
same,Fluorescence reading,[2]; dilution 10^−8,1682
same,Fluorescence reading,[2]; dilution 10^−9,1676
same,Fluorescence reading,[2]; dilution 10^−10,1691
same,Fluorescence reading,[2]; dilution 10^−11,1636
same,Fluorescence reading,[2]; dilution 10^−12,1644
same,Fluorescence reading,[2]; dilution 10^−13,1669
same,Fluorescence reading,[3]; dilution 10^−3,47178
same,Fluorescence reading,[3]; dilution 10^−4,49470
same,Fluorescence reading,[3]; dilution 10^−5,45804
same,Fluorescence reading,[3]; dilution 10^−6,45454
same,Fluorescence reading,[3]; dilution 10^−7,45637
same,Fluorescence reading,[3]; dilution 10^−8,43088
same,Fluorescence reading,[3]; dilution 10^−9,48320
same,Fluorescence reading,[3]; dilution 10^−10,1678
same,Fluorescence reading,[3]; dilution 10^−11,1641
same,Fluorescence reading,[3]; dilution 10^−12,1636
same,Fluorescence reading,[3]; dilution 10^−13,1621
same,Fluorescence reading,[4]; dilution 10^−3,46607
same,Fluorescence reading,[4]; dilution 10^−4,45207
same,Fluorescence reading,[4]; dilution 10^−5,44544
same,Fluorescence reading,[4]; dilution 10^−6,43559
same,Fluorescence reading,[4]; dilution 10^−7,41437
same,Fluorescence reading,[4]; dilution 10^−8,1678
same,Fluorescence reading,[4]; dilution 10^−9,1666
same,Fluorescence reading,[4]; dilution 10^−10,1666
same,Fluorescence reading,[4]; dilution 10^−11,1620
same,Fluorescence reading,[4]; dilution 10^−12,1706
same,Fluorescence reading,[4]; dilution 10^−13,1669
same,Fluorescence reading,[5]; dilution 10^−3,28160
same,Fluorescence reading,[5]; dilution 10^−4,27889
same,Fluorescence reading,[5]; dilution 10^−5,28439
same,Fluorescence reading,[5]; dilution 10^−6,27648
same,Fluorescence reading,[5]; dilution 10^−7,27385
same,Fluorescence reading,[5]; dilution 10^−8,27196
same,Fluorescence reading,[5]; dilution 10^−9,1974
same,Fluorescence reading,[5]; dilution 10^−10,2057
same,Fluorescence reading,[5]; dilution 10^−11,2002
same,Fluorescence reading,[5]; dilution 10^−12,1956
same,Fluorescence reading,[5]; dilution 10^−13,1907
same,Fluorescence reading,[6]; dilution 10^−3,12589
same,Fluorescence reading,[6]; dilution 10^−4,9810
same,Fluorescence reading,[6]; dilution 10^−5,7670
same,Fluorescence reading,[6]; dilution 10^−6,6806
same,Fluorescence reading,[6]; dilution 10^−7,5714
same,Fluorescence reading,[6]; dilution 10^−8,1715
same,Fluorescence reading,[6]; dilution 10^−9,1664
same,Fluorescence reading,[6]; dilution 10^−10,1660
same,Fluorescence reading,[6]; dilution 10^−11,1651
same,Fluorescence reading,[6]; dilution 10^−12,1660
same,Fluorescence reading,[6]; dilution 10^−13,1657
same,Fluorescence reading,[7]; dilution 10^−3,16246
same,Fluorescence reading,[7]; dilution 10^−4,44910
same,Fluorescence reading,[7]; dilution 10^−5,13185
same,Fluorescence reading,[7]; dilution 10^−6,44865
same,Fluorescence reading,[7]; dilution 10^−7,9251
same,Fluorescence reading,[7]; dilution 10^−8,8137
same,Fluorescence reading,[7]; dilution 10^−9,44425
same,Fluorescence reading,[7]; dilution 10^−10,1663
same,Fluorescence reading,[7]; dilution 10^−11,1651
same,Fluorescence reading,[7]; dilution 10^−12,1691
same,Fluorescence reading,[7]; dilution 10^−13,1682
same,Fluorescence reading,[8]; dilution 10^−3,40277
same,Fluorescence reading,[8]; dilution 10^−4,37262
same,Fluorescence reading,[8]; dilution 10^−5,34890
same,Fluorescence reading,[8]; dilution 10^−6,32034
same,Fluorescence reading,[8]; dilution 10^−7,31793
same,Fluorescence reading,[8]; dilution 10^−8,1911
same,Fluorescence reading,[8]; dilution 10^−9,1902
same,Fluorescence reading,[8]; dilution 10^−10,1972
same,Fluorescence reading,[8]; dilution 10^−11,1917
same,Fluorescence reading,[8]; dilution 10^−12,1935
same,Fluorescence reading,[8]; dilution 10^−13,1990
same,Fluorescence reading,[9]; dilution 10^−3,27016
same,Fluorescence reading,[9]; dilution 10^−4,11695
same,Fluorescence reading,[9]; dilution 10^−5,12525
same,Fluorescence reading,[9]; dilution 10^−6,8912
same,Fluorescence reading,[9]; dilution 10^−7,6953
same,Fluorescence reading,[9]; dilution 10^−8,1651
same,Fluorescence reading,[9]; dilution 10^−9,1705
same,Fluorescence reading,[9]; dilution 10^−10,1718
same,Fluorescence reading,[9]; dilution 10^−11,1678
same,Fluorescence reading,[9]; dilution 10^−12,1687
same,Fluorescence reading,[9]; dilution 10^−13,1660
same,Fluorescence reading,[10]; dilution 10^−3,11426
same,Fluorescence reading,[10]; dilution 10^−4,9949
same,Fluorescence reading,[10]; dilution 10^−5,7700
same,Fluorescence reading,[10]; dilution 10^−6,5875
same,Fluorescence reading,[10]; dilution 10^−7,1925
same,Fluorescence reading,[10]; dilution 10^−8,1941
same,Fluorescence reading,[10]; dilution 10^−9,1977
same,Fluorescence reading,[10]; dilution 10^−10,2039
same,Fluorescence reading,[10]; dilution 10^−11,1938
same,Fluorescence reading,[10]; dilution 10^−12,1907
same,Fluorescence reading,[10]; dilution 10^−13,1945
same,Fluorescence reading,[11]; dilution 10^−3,29657
same,Fluorescence reading,[11]; dilution 10^−4,18288
same,Fluorescence reading,[11]; dilution 10^−5,12311
same,Fluorescence reading,[11]; dilution 10^−6,12223
same,Fluorescence reading,[11]; dilution 10^−7,11635
same,Fluorescence reading,[11]; dilution 10^−8,14858
same,Fluorescence reading,[11]; dilution 10^−9,13353
same,Fluorescence reading,[11]; dilution 10^−10,10862
same,Fluorescence reading,[11]; dilution 10^−11,1712
same,Fluorescence reading,[11]; dilution 10^−12,1654
same,Fluorescence reading,[11]; dilution 10^−13,1699
